Results on three molecules are retold here after ChEMBL document CHEMBL4371028, “Designing de Novo Small Molecules That Control Heat Shock Protein 70 (Hsp70) and Heat Shock Organizing Protein (HOP) within the Chaperone Protein-Folding Machinery” (J Med Chem, 2019).

Assay [1] has as its target Stress-induced-phosphoprotein 1 (Homo sapiens) (UniProt P31948). In words: Inhibition of (2S,8S,11S,14S)-2-(4-aminobutyl)-14-(3-guanidinopropyl)-8-(4-hydroxybenzyl)-11-(hydroxymethyl)-4,7,10,13,16,32-hexaoxo-36-((3aS,4S,6aR)-2-oxohexahydro-1H-thieno[3,4-d]imidazol-4-yl)-19,22,25,28-tetraoxa-3,6,9,12,15,31-hexaazahexatriacontan-1-oic acid binding to His-tagged human HOP expressed in Escherichia coli up to 200 uM by Western blot analysis. On the technique in general: A western blot detects proteins with antibodies after separation by electrophoresis.

Assay [2] is filed under the species Homo sapiens. In words: Binding affinity to human recombinant Hsp70 expressed in Escherichia coli at 10 to 200 uM in presence of 1% Triton-X-100 after 1 hr by Western blot analysis based pull down assay.
Assay [3] concerns the target Heat shock protein HSP90 (Homo sapiens) (UniProt P07900+P08238). In words: Binding affinity to Hsp90 (unknown origin) at 10 to 200 uM after 1 hr by Western blot analysis based pull down assay. The assay is classed as protein assay.
The species entered for assay [4] is Homo sapiens. In words: Binding affinity to human recombinant Hsp70 expressed in Escherichia coli in presence of 1% Triton-X-100 after 1 hr by Western blot analysis based pull down assay.

Molecules are shown by their SMILES. The source made the active and inactive calls. The rule behind the calls is not given here. Peptide text beside a SMILES is read from it. * marks the point of attachment. Biotin = O=C1N[C@H]2[C@H](CS[C@H]2CCCCC(=O)*)N1; PEG4 = NCCOCCOCCOCCOCCC(=O)O

Sequence of Stress-induced-phosphoprotein 1 (Homo sapiens) (P31948 whole entry, looked up): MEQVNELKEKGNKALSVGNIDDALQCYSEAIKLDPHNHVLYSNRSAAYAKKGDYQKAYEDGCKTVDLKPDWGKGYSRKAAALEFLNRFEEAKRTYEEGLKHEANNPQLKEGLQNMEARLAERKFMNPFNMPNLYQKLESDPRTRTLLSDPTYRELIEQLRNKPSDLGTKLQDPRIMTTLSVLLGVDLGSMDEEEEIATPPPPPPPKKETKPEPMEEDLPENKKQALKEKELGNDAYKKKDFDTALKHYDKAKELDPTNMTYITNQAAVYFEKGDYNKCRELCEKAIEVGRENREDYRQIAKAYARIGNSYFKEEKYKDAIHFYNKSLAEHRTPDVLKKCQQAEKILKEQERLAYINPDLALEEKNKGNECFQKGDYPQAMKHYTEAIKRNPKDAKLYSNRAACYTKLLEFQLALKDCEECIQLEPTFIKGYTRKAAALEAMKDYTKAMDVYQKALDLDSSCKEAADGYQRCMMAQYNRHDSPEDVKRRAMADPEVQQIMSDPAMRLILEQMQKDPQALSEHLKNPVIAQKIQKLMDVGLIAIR

As to `N=C(N)NCCC[C@H](NC(=O)[C@H](CO)NC(=O)[C@H](Cc1ccc(O)cc1)NC(=O)CNC(=O)[C@@H](N)CCCCN)C(=O)O` (H-KGYSR-OH), the inhibition result in assay [1] was “Active”.

As for `CC(C)C[C@H](NC(=O)[C@H](C)NC(=O)[C@H](C)NC(=O)CCOCCOCCOCCOCCNC(=O)CCCC[C@@H]1SC[C@@H]2NC(=O)N[C@@H]21)C(=O)N[C@@H](CCC(=O)O)C(=O)N[C@@H](Cc1ccccc1)C(=O)O` ({Biotin-PEG4}-AALEF-OH), the outcome in assay [2] and in assay [3] was inactive.

Take `N=C(N)NCCC[C@H](NC(=O)[C@H](CO)NC(=O)[C@H](Cc1ccc(O)cc1)NC(=O)CNC(=O)[C@H](CCCCN)NC(=O)CCOCCOCCOCCOCCNC(=O)CCCC[C@@H]1SC[C@@H]2NC(=O)N[C@@H]21)C(=O)O` ({Biotin-PEG4}-KGYSR-OH): the Activity entry in assay [4] was “Dose-dependent effect”. Moreover, the result in assay [3] was inactive.
